20 compounds from ChEMBL document CHEMBL4831494, “Synthesis and evaluation of FAK inhibitors with a 5-fluoro-7H-pyrrolo[2,3-d]pyrimidine scaffold as anti-hepatocellular carcinoma agents” (Eur J Med Chem, 2021) can be followed below.

One assay deals with Focal adhesion kinase 1 (Homo sapiens, UniProt Q05397). The assay can be described thus: Inhibition of FAK (unknown origin) using Poly(Glu,Tyr) and ATP as substrate measured after 40 mins by Kinase-Glo Plus luminescence assay. (In general: In Kinase-Glo more light means more ATP remaining.)
The nature of another assay: cells. Particulars: Homo sapiens, YY-8103, 48 h.
Another assay has as its system SMMC-7721. The assay can be described thus: cells. To be noted: Homo sapiens, SMMC-7721, 48 h.

Focal adhesion kinase 1, sequence (Q05397 whole entry): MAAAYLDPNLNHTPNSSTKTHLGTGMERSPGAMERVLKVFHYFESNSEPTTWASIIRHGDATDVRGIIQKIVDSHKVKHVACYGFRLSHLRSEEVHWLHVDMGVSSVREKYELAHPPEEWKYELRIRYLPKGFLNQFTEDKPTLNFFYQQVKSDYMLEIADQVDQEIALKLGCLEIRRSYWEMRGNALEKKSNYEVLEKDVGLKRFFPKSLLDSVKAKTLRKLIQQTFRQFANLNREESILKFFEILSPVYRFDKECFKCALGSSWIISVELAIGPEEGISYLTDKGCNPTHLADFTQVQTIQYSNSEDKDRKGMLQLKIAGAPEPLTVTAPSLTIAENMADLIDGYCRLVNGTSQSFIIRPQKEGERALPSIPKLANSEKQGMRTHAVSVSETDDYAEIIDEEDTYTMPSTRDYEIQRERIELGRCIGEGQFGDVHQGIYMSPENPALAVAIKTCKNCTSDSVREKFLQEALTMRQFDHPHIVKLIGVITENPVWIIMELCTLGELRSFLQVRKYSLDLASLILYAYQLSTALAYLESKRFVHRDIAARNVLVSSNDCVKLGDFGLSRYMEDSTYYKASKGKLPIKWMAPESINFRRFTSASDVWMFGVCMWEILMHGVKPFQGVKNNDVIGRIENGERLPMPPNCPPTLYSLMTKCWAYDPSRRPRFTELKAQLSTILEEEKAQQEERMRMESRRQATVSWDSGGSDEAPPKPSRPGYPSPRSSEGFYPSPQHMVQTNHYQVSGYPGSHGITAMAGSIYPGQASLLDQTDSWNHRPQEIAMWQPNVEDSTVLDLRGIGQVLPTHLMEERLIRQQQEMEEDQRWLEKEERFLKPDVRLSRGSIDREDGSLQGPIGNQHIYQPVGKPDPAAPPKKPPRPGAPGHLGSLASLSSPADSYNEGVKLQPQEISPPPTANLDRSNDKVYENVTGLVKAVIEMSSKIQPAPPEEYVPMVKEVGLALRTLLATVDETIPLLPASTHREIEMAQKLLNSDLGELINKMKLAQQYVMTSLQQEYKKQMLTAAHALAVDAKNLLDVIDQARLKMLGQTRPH
Description for SMMC-7721: Antiproliferative activity against human SMMC-7721 cells assessed as inhibition of cell growth measured after 48 hrs by MTT assay

Broadly, the IC50 is the concentration needed to halve the response being measured. For the compound `CNC(=O)c1ccccc1Nc1nc(Nc2ccc(N3CCOCC3)cc2OC)nc2[nH]cc(F)c12`, the IC50 on Focal adhesion kinase 1 came out at 0.023 µM; in the assay “cells” it was 14.2 µM; with SMMC-7721, 33.9 µM.
For the compound `CNC(=O)c1ccccc1Nc1nc(Nc2ccc3c(c2)CC(=O)N3)nc2[nH]cc(F)c12`, the IC50 at Focal adhesion kinase 1 was 0.022 µM; in “cells”, 4.69 µM; with SMMC-7721, 10 µM.
As for `CN(c1ncccc1CNc1nc(Nc2ccccc2)nc2[nH]cc(F)c12)S(C)(=O)=O`, the results for the IC50 at Focal adhesion kinase 1, in “cells” and with SMMC-7721 were 0.032 µM, > 100 µM and > 100 µM, respectively.
For the compound `COc1cccc(Nc2nc(NCc3cccnc3N(C)S(C)(=O)=O)c3c(F)c[nH]c3n2)c1C`, the IC50 at Focal adhesion kinase 1 is 0.076 µM; in the assay “cells”, > 100 µM; in the assay on SMMC-7721 it was > 100 µM.
Consider `CN(c1ncccc1CNc1nc(Nc2ccc(N3CCOCC3)cc2)nc2[nH]cc(F)c12)S(C)(=O)=O`, for which the IC50 is 0.026 µM on Focal adhesion kinase 1, > 100 µM in the assay “cells” and > 100 µM in the assay with SMMC-7721.
For the compound `COc1ccc(Nc2nc(NCc3cccnc3N(C)S(C)(=O)=O)c3c(F)c[nH]c3n2)cc1OC`, the IC50 at Focal adhesion kinase 1 is 0.015 µM; in “cells”, 18.2 µM; in the assay on SMMC-7721, 54.8 µM.
Turning to `CNC(=O)c1ccccc1Nc1nc(Nc2cccc(CNC(C)=O)c2)nc2[nH]cc(F)c12`, the IC50 at Focal adhesion kinase 1 was 0.014 µM; in the assay “cells”, 1.06 µM; in the assay on SMMC-7721 it was 18.7 µM.
The like results for `CN(c1ncccc1CNc1nc(Nc2ccc(F)c(Cl)c2)nc2[nH]cc(F)c12)S(C)(=O)=O` were, in that order, 0.041 µM, 82.5 µM and > 100 µM.
`COc1cc(Nc2nc(NCc3cccnc3N(C)S(C)(=O)=O)c3c(F)c[nH]c3n2)cc(OC)c1OC`: the IC50 on Focal adhesion kinase 1 was 0.017 µM; in the assay “cells”, > 100 µM; in the assay with SMMC-7721, > 100 µM.
`CN(c1ncccc1CNc1nc(Nc2ccc3c(c2)CC(=O)N3)nc2[nH]ccc12)S(C)(=O)=O`: the IC50 at Focal adhesion kinase 1 is 0.055 µM; in the assay “cells” it was 13.6 µM; in the assay with SMMC-7721, 52.8 µM.
In the case of `CN(c1ncccc1CNc1nc(Nc2ccc3c(c2)CC(=O)N3)nc2[nH]cc(F)c12)S(C)(=O)=O`, the IC50 worked out at 0.022 µM at Focal adhesion kinase 1, 24.1 µM in “cells” and 73.2 µM in the assay with SMMC-7721.
As for `Cc1cc2c(NCc3cccnc3N(C)S(C)(=O)=O)nc(Nc3ccc4c(c3)CC(=O)N4)nc2[nH]1`, the half-maximal inhibitory concentration (IC50) is 12 µM at Focal adhesion kinase 1, > 100 µM in “cells” and > 100 µM with SMMC-7721.
In the case of `COc1cc(N2CCOCC2)ccc1Nc1nc(NCc2cccnc2N(C)S(C)(=O)=O)c2c(F)c[nH]c2n1`, the IC50 is 0.023 µM on Focal adhesion kinase 1, 15.4 µM in “cells” and 15.3 µM with SMMC-7721.
For `Cc1c[nH]c2nc(Nc3ccc4c(c3)CC(=O)N4)nc(NCc3cccnc3N(C)S(C)(=O)=O)c12`, in that order: 0.064 µM, 12.4 µM and 18.7 µM.
The like results for `CN(c1ncccc1CNc1nc(Nc2cccc(C#N)c2)nc2[nH]cc(F)c12)S(C)(=O)=O` were, in that order, 0.035 µM, > 100 µM and > 100 µM.
Regarding `CN1CCN(c2ccc(Nc3nc(NCc4cccnc4N(C)S(C)(=O)=O)c4c(F)c[nH]c4n3)cc2)CC1`, the values for the IC50 at Focal adhesion kinase 1, in “cells” and in the assay with SMMC-7721 were 0.013 µM, 2.39 µM and 13.9 µM, respectively.
The like results for `CN(c1ncccc1CNc1nc(Nc2ccc3c(c2)CC(=O)N3)nc2[nH]cc(C#N)c12)S(C)(=O)=O` were, in that order, 0.325 µM, > 100 µM and > 100 µM.
As for `CN(c1ncccc1CNc1nc(Nc2ccc3c(c2)CC(=O)N3)nc2[nH]ncc12)S(C)(=O)=O`, the IC50 at Focal adhesion kinase 1 was 0.206 µM.
Take `CN(c1ncccc1CNc1nc(Nc2ccc(F)cc2)nc2[nH]cc(F)c12)S(C)(=O)=O`: the IC50 was 0.038 µM at Focal adhesion kinase 1, > 100 µM in the assay “cells” and 27.9 µM in the assay on SMMC-7721.
The like results for `CC(=O)NCc1cccc(Nc2nc(NCc3cccnc3N(C)S(C)(=O)=O)c3c(F)c[nH]c3n2)c1` were, in that order, 0.023 µM, 20.5 µM and 21.7 µM.
